Drawing on US7919488B2, “Therapeutic compounds” (Pfizer Inc., priority 2006, dated 2011), this text covers Ki and IC50 for ten compounds.

Holding throughout (type): biochemical
In test [1] the target is T1, recombinant CYP3A4-b5 enzyme (Baculosomes®) (Homo sapiens, UniProt P08684).
T1 construct: purchased Invitrogen (Carlsbad, Calif.)
Kind of test: Kiapp against recombinant CYP3A4 enzyme (Baculosomes), BFC substrate. Conditions: recombinant CYP3A4-b5 (Invitrogen), 5 uM BFC, 200 uM NADPH, pre-incubation at least 30 minutes, pH 7.0, room temperature. Put shortly: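 Recombinant CYP3A4-b5 Baculosomes were run in 100 mM sodium phosphate pH 7.0 with 5 mM TCEP and 2% DMF at room temperature, with ~30 min pre-incubation. The reaction was started with NADPH (200 uM) and BFC (5 uM), both final. Kiapp came from initial fluorescence velocities over the first 5 min across inhibitor concentrations.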

Test [2] deals with T2, CYP3A4 (Homo sapiens, UniProt P08684).
T2 construct: 0.1 mg/mL human liver microsomes; from tissue; host or cells: human liver microsomes
The experiment in a line: IC50 against CYP3A4 by inhibition of midazolam metabolism in human liver microsomes. As to conditions: 0.1 mg/mL human liver microsomes, 2 μM midazolam, 1 mM NADPH, 1-hydroxymidazolam production, eight minutes; read-out: IC50, μM (HLM, midazolam). An outline of the steps: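 Human liver microsomes (0.1 mg/mL) incubated 8 min with 2 μM midazolam and 1 mM NADPH in 100 mM potassium phosphate, pH 7.4. 1-Hydroxymidazolam quantified by LC-MS/MS (MRM) as peak area ratio to internal standard against a metabolite standard curve.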

The target of test [3] is T3, recombinant CYP3A4+b5 enzyme (Supersomes®) (Homo sapiens, UniProt P08684).
T3 construct: purchased BD Biosciences (Woburn, Mass.)
Kind of test: Kiapp against recombinant CYP3A4 enzyme (Supersomes), BFC substrate. As to conditions: recombinant CYP3A4+b5 (BD Biosciences), 5 uM BFC, 200 uM NADPH, pre-incubation at least 30 minutes, pH 7.0, room temperature. The method, then: 1. Determination of Compound Kiapp
A determination of the Kiapp of the compounds of the invention against recombinant CYP3A4 enzyme was performed as follows. The assay was performed in a 100 mM sodium phosphate buffer pH 7.0, 5 mM TCEP and containing 2% dimethylformamide (final concentration) upon addition of substrate and inhibitor. A typical reaction for the determination of Kiapp values was carried at room temperature in a solid black Costar u-bottom 96-well polypropylene plate. In each well, recombinant CYP3A4 enzyme (5.5 nM or 8 nM, final concentration depending on the commercial source of the enzyme) was pre-incubated in the presence of the inhibitor for at least 30 minutes in the assay buffer. When pre-incubation was completed (˜30 min), the reaction was initiated by adding NADPH (200 uM, final concentration), and 7-benzyloxy-4-(trifluoromethyl)-coumarin (BFC) (5 uM, final concentration). The oxidation of the coumarin substrate was recorded by a 96-well plate reader POLARstar (BMG LABTECH, Offenburg, Germany).
The initial reaction velocities were measured during the first 5 min of the reaction when the release of the fluorescent product is linear with time, in the absence and in the presence of various concentrations of inhibitors. For non-partial & partial inhibitors, the Kiapp values were determined by using the equation for tight-binding inhibitor developed by Morrison, J F (Morrison J F. Biochim Biophys Acta. 1969, 185: 269-86) and by Szedlaseck S E et al. (Szedlascek, S. E., Ostafe, V., Serban, M., and Vlad, M. O. Biochem. J. 1988, 254:311-312), respectively.
The fluorescent substrate BFC was purchased from Sigma (St Louis, Mo.). Two commercial sources of recombinant enzymes were used in this study: recombinant CYP3A4-b5 enzyme (Baculosomes®) was purchased from Invitrogen (Carlsbad, Calif.) and the recombinant CYP3A4+b5 enzyme (Supersomes®) was purchased from BD Biosciences (Woburn, Mass.).

For test [4], the target named is T2, CYP3A4. Kind of test: IC50 against CYP3A4 by inhibition of testosterone metabolism in human liver microsomes. Conditions: 0.1 mg/mL human liver microsomes, 25 μM testosterone, 1 mM NADPH, 6-β-OH-testosterone production, eight minutes; read-out: IC50, μM (HLM, testosterone). Put shortly:
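Testosterone used as substrate, incubated for eight minutes. 6-β-OH-testosterone formation quantified by LC-MS/MS (MRM) as peak area ratio to internal standard against a metabolite standard curve. IC50 derived from inhibition of this metabolism.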

T3 sequence (P08684 2-503 limits assumed): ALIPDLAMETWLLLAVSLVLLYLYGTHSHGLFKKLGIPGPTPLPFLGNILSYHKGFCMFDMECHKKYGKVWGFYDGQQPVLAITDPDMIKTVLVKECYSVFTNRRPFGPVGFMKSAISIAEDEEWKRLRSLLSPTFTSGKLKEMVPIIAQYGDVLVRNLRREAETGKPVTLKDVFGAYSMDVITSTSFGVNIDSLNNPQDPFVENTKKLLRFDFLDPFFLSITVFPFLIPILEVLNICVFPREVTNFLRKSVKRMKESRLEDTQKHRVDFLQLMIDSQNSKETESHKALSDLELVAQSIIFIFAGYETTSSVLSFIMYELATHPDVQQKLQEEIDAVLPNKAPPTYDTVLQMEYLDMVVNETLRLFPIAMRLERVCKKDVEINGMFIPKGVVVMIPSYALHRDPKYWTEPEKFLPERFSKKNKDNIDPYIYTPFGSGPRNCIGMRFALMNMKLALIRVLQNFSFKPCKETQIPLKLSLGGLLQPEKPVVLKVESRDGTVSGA
T2 sequence (P08684 whole entry): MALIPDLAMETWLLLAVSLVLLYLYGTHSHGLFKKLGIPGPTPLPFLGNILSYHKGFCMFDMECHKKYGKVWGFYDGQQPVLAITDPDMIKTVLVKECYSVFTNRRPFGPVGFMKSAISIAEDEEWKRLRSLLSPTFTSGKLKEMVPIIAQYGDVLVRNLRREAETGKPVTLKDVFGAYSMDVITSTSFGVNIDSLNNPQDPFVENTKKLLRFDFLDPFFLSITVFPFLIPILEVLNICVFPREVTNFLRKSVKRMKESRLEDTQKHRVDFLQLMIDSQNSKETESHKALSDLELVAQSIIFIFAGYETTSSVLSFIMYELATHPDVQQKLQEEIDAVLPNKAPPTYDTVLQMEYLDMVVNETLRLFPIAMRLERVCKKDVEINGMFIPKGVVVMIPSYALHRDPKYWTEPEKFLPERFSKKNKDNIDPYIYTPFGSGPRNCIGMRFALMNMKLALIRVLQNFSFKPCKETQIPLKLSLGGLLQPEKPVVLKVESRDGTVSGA
T1 sequence (P08684 whole entry): as above

As for `COC(=O)N(C)C1CCN(C(=O)Cn2nc(-c3ccncc3)cc2Cc2ccc(F)cc2)C1` (stereo not shown) [Example 128, methyl (1-{[5-(4-fluorobenzyl)-3-pyridin-4-yl-1H-pyrazol-1-yl]acetyl}pyrrolidin-3-yl)methylcarbamate], the Ki turned out to be 0.0488 µM in test [1] and 0.00507 µM in test [3]. The IC50 at CYP3A4 [2] came out at 0.022 µM; at CYP3A4 [4], 0.026 µM.

Take `CNC(=O)N(C)C1CCN(C(=O)Cn2nc(-c3ccncc3)cc2Cc2ccc(F)cc2)C1` (stereo not shown) [Example 129, 1-(1-{[5-(4-fluorobenzyl)-3-pyridin-4-yl-1H-pyrazol-1-yl]acetyl}pyrrolidin-3-yl)-1,3-dimethylurea]: the Ki in test [1] was determined as 0.312 µM; in test [3], 0.017 µM. Also, the IC50 at CYP3A4 [2] worked out at 0.022 µM; on CYP3A4 [4] it was 0.066 µM.

Turning to `COC(=O)N[C@H]1CCN(C(=O)Cn2nc(-c3ccncc3)cc2Cc2ccc(F)cc2)C1` [Example 130, methyl [(3S)-1-{[5-(4-fluorobenzyl)-3-pyridin-4-yl-1H-pyrazol-1-yl]acetyl}pyrrolidin-3-yl]carbamate], the Ki in test [1] is 0.0276 µM; in test [3], 0.00618 µM. In addition, the IC50 is 0.015 µM on CYP3A4 [2] and 0.032 µM on CYP3A4 [4].

Consider `CS(=O)(=O)CCN1CCN(C(=O)Cn2nc(-c3ccncc3)cc2Cc2ccc(F)cc2)CC1` [Example 131, 1-{[5-(4-fluorobenzyl)-3-pyridin-4-yl-1H-pyrazol-1-yl]acetyl}-4-[2-(methylsulfonyl)ethyl] piperazine], for which the Ki is 0.0111 µM in test [1] and 0.00283 µM in test [3]. Besides, the IC50 at CYP3A4 [2] is 0.0139 µM; on CYP3A4 [4], 0.037 µM.

As to `CS(=O)(=O)C1CCN(C(=O)Cn2nc(-c3ccncc3)cc2Cc2ccc(F)cc2)C1` (stereo not shown) [Example 132, 4-[5-(4-fluorobenzyl)-1-{2-[3-(methylsulfonyl)-pyrrolidin-1-yl]-2-oxoethyl}-1H-pyrazol-3-yl]pyridine], the figures for the Ki in test [1] and in test [3] were 0.0996 µM and 0.0716 µM, respectively. For the same compound, the figures for the IC50 on CYP3A4 [2] and at CYP3A4 [4] were 0.023 µM and 0.04 µM, respectively.

For `CC(C)(CN1CCOCC1)NC(=O)Cn1nc(-c2ccnnc2)cc1Cc1ccc(F)cc1` [Example 133, N-(1,1-dimethyl-2-morpholin-4-ylethyl)-2-[5-(4-fluorobenzyl)-3-pyridazin-4-yl-1H-pyrazol-1-yl]acetamide], the Ki in test [1] came out at 0.21 µM; in test [3], 0.174 µM. Besides, the IC50 at CYP3A4 [2] came to 0.083 µM; on CYP3A4 [4] it was 0.044 µM.

For `CC(=O)N1CCN(C(=O)Cn2nc(-c3ccncc3)cc2Cc2ccc(F)cc2)CC1` [Example 134, 1-acetyl-4-{[5-(4-fluorobenzyl)-3-pyridin-4-yl-1H-pyrazol-1-yl]acetyl}piperazine], the values for the Ki in test [1] and in test [3] were 0.131 µM and 0.0168 µM, respectively. Moreover, the 50% inhibitory concentration (IC50) on CYP3A4 [2] was determined as 0.0169 µM; on CYP3A4 [4], 0.051 µM.

Consider `CN(C(=O)Cn1nc(-c2ccncc2)cc1Cc1ccc(F)cc1)[C@H]1CC[C@@H](O)CC1` [Example 135, 2-[5-(4-fluorobenzyl)-3-pyridin-4-yl-1H-pyrazol-1-yl]-N-(cis-4-hydroxycyclohexyl)-N-methylacetamide], for which the Ki in test [1] is 0.108 µM; in test [3], 0.0358 µM. Also, the IC50 on CYP3A4 [2] came to 0.00867 µM; at CYP3A4 [4] it was 0.021 µM.

Consider `O=C(Cn1nc(-c2ccncc2)cc1Cc1ccc(F)cc1)N1CCC(N2CCCCC2=O)CC1` [Example 136, 1′-{[5-(4-fluorobenzyl)-3-pyridin-4-yl-1H-pyrazol-1-yl]acetyl}-1,4′-bipiperidin-2-one], for which the Ki turned out to be 0.0291 µM in test [1] and 0.0119 µM in test [3]. Besides, the IC50 at CYP3A4 [2] was below 0.00833 µM; on CYP3A4 [4] it was 0.023 µM.

With `O=C(Cn1nc(-c2ccncc2)cc1Cc1ccc(F)cc1)N1CCC(N2CCOCC2)CC1` [Example 137, 4-(1-{[5-(4-fluorobenzyl)-3-pyridin-4-yl-1H-pyrazol-1-yl]acetyl}piperidin-4-yl)morpholine], the figures for the Ki in test [1] and in test [3] were 0.0129 µM and 0.0036 µM, respectively. The values for the IC50 on CYP3A4 [2] and on CYP3A4 [4] were 0.0101 µM and 0.031 µM, respectively.
